Values quoted from earlier work, collected in US7763563B2, “Niobium compounds and hydrates thereof, formulations containing the same, and methods of providing specifications therefor” (H. C. Starck GmbH, priority 2006, dated 2010).

Conditions: prior art compounds, Limar et al.

water solubility: 40 g Nb/1
Substance: (NH4)3[Nb(O)(C2O4)3]*x H2O
